According to the NIST ThermoML archive (doi:10.1021/je700671t):

Assay: xn = mol fraction of the nth substance listed
Details: 101 kPa, Liquid; for viscosity: Capillary tube (Ostwald / Ubbelohde) method

CN(C)C=O [dimethylformamide] + O
Details	mass density [kg/m3]	viscosity [mPa·s]
323.15 K, x1 = 0.02	986	0.648
323.15 K, x1 = 0.04	984.49	0.729
323.15 K, x1 = 0.06	983.26	0.812
323.15 K, x1 = 0.08	982.19	0.892
323.15 K, x1 = 0.1	981.17	0.965
323.15 K, x1 = 0.2	975.89	1.228
323.15 K, x1 = 0.3	968.99	1.3
323.15 K, x1 = 0.398	960.81	1.228
323.15 K, x1 = 0.498	952.92	1.087
323.15 K, x1 = 0.599	945.11	0.961
323.15 K, x1 = 0.697	938.03	0.831
323.15 K, x1 = 0.798	931.73	0.74
323.15 K, x1 = 1	920.71	0.617
328.15 K, x1 = 0.02	983.51	–
328.15 K, x1 = 0.04	981.71	–
328.15 K, x1 = 0.06	980.24	–
328.15 K, x1 = 0.08	978.94	–
328.15 K, x1 = 0.1	977.71	–
328.15 K, x1 = 0.2	971.68	–
328.15 K, x1 = 0.3	964.38	–
328.15 K, x1 = 0.398	956.04	–
328.15 K, x1 = 0.498	948.09	–
328.15 K, x1 = 0.599	940.27	–
328.15 K, x1 = 0.697	933.2	–
328.15 K, x1 = 0.798	926.91	–
328.15 K, x1 = 1	915.92	–
333.15 K, x1 = 0.02	980.84	0.548
333.15 K, x1 = 0.04	978.81	0.613
333.15 K, x1 = 0.06	977.1	0.675
333.15 K, x1 = 0.08	975.59	0.736
333.15 K, x1 = 0.1	974.16	0.792
333.15 K, x1 = 0.2	967.4	0.992
333.15 K, x1 = 0.3	959.73	1.046
333.15 K, x1 = 0.398	951.22	1.001
333.15 K, x1 = 0.498	943.22	0.905
333.15 K, x1 = 0.599	935.4	0.81
333.15 K, x1 = 0.697	928.34	0.722
333.15 K, x1 = 0.798	922.08	0.654
333.15 K, x1 = 1	911.13	0.559
338.15 K, x1 = 0.02	978.04	–
338.15 K, x1 = 0.04	975.81	–
338.15 K, x1 = 0.06	973.86	–
338.15 K, x1 = 0.08	972.14	–
338.15 K, x1 = 0.1	970.51	–
338.15 K, x1 = 0.2	963.07	–
338.15 K, x1 = 0.3	955.03	–
338.15 K, x1 = 0.398	946.36	–
338.15 K, x1 = 0.498	938.32	–
338.15 K, x1 = 0.599	930.49	–
338.15 K, x1 = 0.697	923.46	–
338.15 K, x1 = 0.798	917.22	–
338.15 K, x1 = 1	906.32	–
343.15 K, x1 = 0.02	975.12	0.474
343.15 K, x1 = 0.04	972.66	0.526
343.15 K, x1 = 0.06	970.5	0.575
343.15 K, x1 = 0.08	968.59	0.624
343.15 K, x1 = 0.1	966.78	0.666
343.15 K, x1 = 0.2	958.67	0.821
343.15 K, x1 = 0.3	950.29	0.866
343.15 K, x1 = 0.398	941.46	0.837
343.15 K, x1 = 0.498	933.38	0.764
343.15 K, x1 = 0.599	925.56	0.701
343.15 K, x1 = 0.697	918.55	0.636
343.15 K, x1 = 0.798	912.34	0.583
343.15 K, x1 = 1	901.51	0.51
348.15 K, x1 = 0.02	972.14	–
348.15 K, x1 = 0.04	969.42	–
348.15 K, x1 = 0.06	967.1	–
348.15 K, x1 = 0.08	964.94	–
348.15 K, x1 = 0.1	962.96	–
348.15 K, x1 = 0.2	954.21	–
348.15 K, x1 = 0.3	945.49	–
348.15 K, x1 = 0.398	936.52	–
348.15 K, x1 = 0.498	928.4	–
348.15 K, x1 = 0.599	920.59	–
348.15 K, x1 = 0.697	913.61	–
348.15 K, x1 = 0.798	907.45	–
348.15 K, x1 = 1	896.69	–
353.15 K, x1 = 0.02	968.96	0.417
353.15 K, x1 = 0.04	966.06	0.459
353.15 K, x1 = 0.06	963.53	0.499
353.15 K, x1 = 0.08	961.2	0.539
353.15 K, x1 = 0.1	959.05	0.572
353.15 K, x1 = 0.2	949.69	0.694
353.15 K, x1 = 0.3	940.64	0.727
353.15 K, x1 = 0.398	931.54	0.707
353.15 K, x1 = 0.498	923.39	0.659
353.15 K, x1 = 0.599	915.59	0.614
353.15 K, x1 = 0.697	908.64	0.563
353.15 K, x1 = 0.798	902.52	0.525
353.15 K, x1 = 1	891.86	0.47
